Holding throughout (parameters): species or system human
Experiment [1] deals with sera samples (antibodies). As to the kind of experiment: ELISA peptide-binding of maternal sera, MN strain peptides (Example 7). The conditions noted are these: for % Bound, Non-Transmitter / No. of Sera Samples Bound, Non-Transmitter / % Bound, Transmitter / No. of Sera Samples Bound, Transmitter: n = 5; for Correlation of peptide binding with non-transmission (in words): Example 7. The procedure: This example provides additional sera screens using peptides corresponding to sequences of the MN strain. The sera samples (5 transmitters and 5 non-transmitters) were obtained from the NIH and differ from those screened in the previous studies. Peptide binding was analyzed by ELISA as described in Example 3.
(In general: An ELISA detects its analyte on a solid surface through an enzyme-linked reagent.)

The subject of experiment [2] is maternal HIV+ sera (antibodies). As to the kind of experiment: RIA / ELISA binding of maternal HIV+ sera to gp120 and gp41 peptides (Example 3). Summed up:
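Peptides were coated at 10 μg/ml in carbonate buffer pH 9.6 and blocked with 1% BSA. Sera at 1:50 and 1:500 were incubated overnight at 4°C and detected with ¹²⁵I anti-human IgG (RIA) or HRP/TMB at OD450 (ELISA). Specific binding was taken as peptide minus no-peptide wells, scored as a ratio to normal human serum.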

Experiment [3] relates to maternal sera (antibodies). The experiment is described as follows: ELISA peptide-binding of maternal sera (Example 6). The conditions noted are these: for Number of Non-Transmitters which bound to peptide / Percent of Non-Transmitters which bound to peptide: N = 12; for Number of Transmitters which bound to peptide / Percent of Transmitters which bound to peptide: N = 4. Summed up:
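Third-trimester maternal sera, from HIV-1 transmitting and non-transmitting mothers, were tested by ELISA against ~16-residue peptides spanning HIV-1 external and transmembrane glycoproteins. Each serum was run with at least 40 peptides, and values are the percentage of sera binding each peptide.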

Setting [4] is: Serum No. 1, Non-Transmission Group.
The mark [5] stands for this setting: Serum No. 2, Non-Transmission Group.
Where [6] appears, read: Serum No. 3, Non-Transmission Group.
Where [7] appears, read: Serum No. 4, Transmission Group.
The mark [8] stands for this setting: Serum No. 5, Transmission Group.
Setting [9] is: Serum No. 6, Non-Transmission Group.
The mark [10] stands for this setting: Serum No. 7, Non-Transmission Group.
[11] abbreviates: Serum No. 8, Non-Transmission Group.
[12] abbreviates: Serum No. 9, Non-Transmission Group.
[13] abbreviates: Serum No. 10, Transmission Group.
Where [14] appears, read: Serum No. 11, Non-Transmission Group.
[15] abbreviates: Serum No. 12, Non-Transmission Group.
The mark [16] stands for this setting: Serum No. 13, Transmission Group.
The mark [17] stands for this setting: Serum No. 14, Transmission Group.
The mark [18] stands for this setting: Serum No. 15, Transmission Group.
Setting [19] is: Serum No. 16, Non-Transmission Group.
Setting [20] is: Serum No. 17, Non-Transmission Group.
Setting [21] is: Serum No. 18, Non-Transmission Group.
The mark [22] stands for this setting: Serum No. 19, Transmission Group.
The mark [23] stands for this setting: Serum No. 20, Non-Transmission Group.

On to “MN-10: gp41 peptide, amino acids 716-730, HIV strain MN, SEQ ID NO: 158”, for which, in experiment [1], the “% Bound, Non-Transmitter” value amounted to 20%; the “No. of Sera Samples Bound, Non-Transmitter” value turned out to be 1; the “% Bound, Transmitter” value is 20%; the “No. of Sera Samples Bound, Transmitter” value worked out at 1.
As to HIPTRIRQGLERALL [MN-11], in experiment [1], the “Correlation of peptide binding with non-transmission (in words)” value was “selectively correlate with non-transmission”; the “% Bound, Non-Transmitter” value was determined as 60%; the “No. of Sera Samples Bound, Non-Transmitter” value was 3; the “% Bound, Transmitter” value is 0%. Further, the “No. of Sera Samples Bound, Transmitter” value in experiment [1] turned out to be 0.
With “MN-16: gp41 peptide, amino acids 638-650, HIV strain MN, SEQ ID NO: 167”, in experiment [1], the “% Bound, Non-Transmitter” value was determined as 0%; the “No. of Sera Samples Bound, Non-Transmitter” value was 0; the “% Bound, Transmitter” value worked out at 0%; the “No. of Sera Samples Bound, Transmitter” value amounted to 0.
With YIKIFIMIVGGLVG [MN-17], in experiment [1], the “Correlation of peptide binding with non-transmission (in words)” value is given as “selectively correlate with non-transmission”; the “% Bound, Non-Transmitter” value is recorded as 40%; the “No. of Sera Samples Bound, Non-Transmitter” value is recorded as 2; the “% Bound, Transmitter” value was determined as 0%. In addition, the “No. of Sera Samples Bound, Transmitter” value in experiment [1] came out at 0.
Turning to IGALFLGFGAAGST [Peptide 117], the “Binding of maternal HIV+ serum to peptide (sera/NHS ratio)” value (from here on “Binding … (sera/NHS ratio)”) was “- (specific OD450 or cpm of sera sample binding to peptide divided by the specific OD450 or cpm of NHS sample binding to peptide, which value is less than 2)” in experiment [2] (setting [4]); “- (specific OD450 or cpm of sera sample binding to peptide divided by the specific OD450 or cpm of NHS sample binding to peptide, which value is less than 2)” in experiment [2] (setting [5]); “- (specific OD450 or cpm of sera sample binding to peptide divided by the specific OD450 or cpm of NHS sample binding to peptide, which value is less than 2)” in experiment [2] (setting [6]); “- (specific OD450 or cpm of sera sample binding to peptide divided by the specific OD450 or cpm of NHS sample binding to peptide, which value is less than 2)” in experiment [2] (setting [7]); “- (specific OD450 or cpm of sera sample binding to peptide divided by the specific OD450 or cpm of NHS sample binding to peptide, which value is less than 2)” in experiment [2] (setting [8]); “- (specific OD450 or cpm of sera sample binding to peptide divided by the specific OD450 or cpm of NHS sample binding to peptide, which value is less than 2)” in experiment [2] (setting [9]). For the same substance, the “Binding … (sera/NHS ratio)” value is “- (specific OD450 or cpm of sera sample binding to peptide divided by the specific OD450 or cpm of NHS sample binding to peptide, which value is less than 2)” in experiment [2] (setting [10]); “- (specific OD450 or cpm of sera sample binding to peptide divided by the specific OD450 or cpm of NHS sample binding to peptide, which value is less than 2)” in experiment [2] (setting [11]); “- (specific OD450 or cpm of sera sample binding to peptide divided by the specific OD450 or cpm of NHS sample binding to peptide, which value is less than 2)” in experiment [2] (setting [12]); “- (specific OD450 or cpm of sera sample binding to peptide divided by the specific OD450 or cpm of NHS sample binding to peptide, which value is less than 2)” in experiment [2] (setting [13]); “- (specific OD450 or cpm of sera sample binding to peptide divided by the specific OD450 or cpm of NHS sample binding to peptide, which value is less than 2)” in experiment [2] (setting [14]); “- (specific OD450 or cpm of sera sample binding to peptide divided by the specific OD450 or cpm of NHS sample binding to peptide, which value is less than 2)” in experiment [2] (setting [15]). For the same substance, the “Binding … (sera/NHS ratio)” value in experiment [2] (setting [16]) is recorded as “- (specific OD450 or cpm of sera sample binding to peptide divided by the specific OD450 or cpm of NHS sample binding to peptide, which value is less than 2)”; in experiment [2] (setting [17]), “- (specific OD450 or cpm of sera sample binding to peptide divided by the specific OD450 or cpm of NHS sample binding to peptide, which value is less than 2)”; in experiment [2] (setting [18]) it was “- (specific OD450 or cpm of sera sample binding to peptide divided by the specific OD450 or cpm of NHS sample binding to peptide, which value is less than 2)”; in experiment [2] (setting [19]), “- (specific OD450 or cpm of sera sample binding to peptide divided by the specific OD450 or cpm of NHS sample binding to peptide, which value is less than 2)”; in experiment [2] (setting [20]) it was “- (specific OD450 or cpm of sera sample binding to peptide divided by the specific OD450 or cpm of NHS sample binding to peptide, which value is less than 2)”; in experiment [2] (setting [21]) it was “- (specific OD450 or cpm of sera sample binding to peptide divided by the specific OD450 or cpm of NHS sample binding to peptide, which value is less than 2)”. For the same substance, the “Binding … (sera/NHS ratio)” value in experiment [2] (setting [22]) is listed as “- (specific OD450 or cpm of sera sample binding to peptide divided by the specific OD450 or cpm of NHS sample binding to peptide, which value is less than 2)”; in experiment [2] (setting [23]), “- (specific OD450 or cpm of sera sample binding to peptide divided by the specific OD450 or cpm of NHS sample binding to peptide, which value is less than 2)”. In experiment [3], the “Number of Non-Transmitters which bound to peptide” value is on record as 2. Moreover, the “Percent of Non-Transmitters which bound to peptide” value in experiment [3] is 16.7%. In addition, the “Number of Transmitters which bound to peptide” value in experiment [3] was 0. The “Percent of Transmitters which bound to peptide” value in experiment [3] is 0%.
In the case of RIQRGPGRAFVTIGK [p18p], the “Percentage of sera samples demonstrating binding to peptide, non-transmitter” value in experiment [2] (Non-transmitter group, n = 13) came out at 30.7%. Moreover, the “Binding … (sera/NHS ratio)” value was “- (specific OD450 or cpm of sera sample binding to peptide divided by the specific OD450 or cpm of NHS sample binding to peptide, which value is less than 2)” in experiment [2] (setting [4]); “- (specific OD450 or cpm of sera sample binding to peptide divided by the specific OD450 or cpm of NHS sample binding to peptide, which value is less than 2)” in experiment [2] (setting [5]); “- (specific OD450 or cpm of sera sample binding to peptide divided by the specific OD450 or cpm of NHS sample binding to peptide, which value is less than 2)” in experiment [2] (setting [6]); “- (specific OD450 or cpm of sera sample binding to peptide divided by the specific OD450 or cpm of NHS sample binding to peptide, which value is less than 2)” in experiment [2] (setting [7]); “- (specific OD450 or cpm of sera sample binding to peptide divided by the specific OD450 or cpm of NHS sample binding to peptide, which value is less than 2)” in experiment [2] (setting [8]); “- (specific OD450 or cpm of sera sample binding to peptide divided by the specific OD450 or cpm of NHS sample binding to peptide, which value is less than 2)” in experiment [2] (setting [9]). Also, the “Binding … (sera/NHS ratio)” value is given as “- (specific OD450 or cpm of sera sample binding to peptide divided by the specific OD450 or cpm of NHS sample binding to peptide, which value is less than 2)” in experiment [2] (setting [10]); “- (specific OD450 or cpm of sera sample binding to peptide divided by the specific OD450 or cpm of NHS sample binding to peptide, which value is less than 2)” in experiment [2] (setting [11]); “- (specific OD450 or cpm of sera sample binding to peptide divided by the specific OD450 or cpm of NHS sample binding to peptide, which value is less than 2)” in experiment [2] (setting [12]); “- (specific OD450 or cpm of sera sample binding to peptide divided by the specific OD450 or cpm of NHS sample binding to peptide, which value is less than 2)” in experiment [2] (setting [13]); “- (specific OD450 or cpm of sera sample binding to peptide divided by the specific OD450 or cpm of NHS sample binding to peptide, which value is less than 2)” in experiment [2] (setting [14]); “++ (which value is greater than 3)” in experiment [2] (setting [15]). Moreover, the “Binding … (sera/NHS ratio)” value in experiment [2] (setting [16]) is given as “++ (which value is greater than 3)”; in experiment [2] (setting [17]), “++ (which value is greater than 3)”; in experiment [2] (setting [18]), “++ (which value is greater than 3)”; in experiment [2] (setting [19]), “+ (which value is between 2 to 3)”; in experiment [2] (setting [20]) it was “++ (which value is greater than 3)”; in experiment [2] (setting [21]) it was “- (specific OD450 or cpm of sera sample binding to peptide divided by the specific OD450 or cpm of NHS sample binding to peptide, which value is less than 2)”. Also, the “Binding … (sera/NHS ratio)” value in experiment [2] (setting [22]) is “- (specific OD450 or cpm of sera sample binding to peptide divided by the specific OD450 or cpm of NHS sample binding to peptide, which value is less than 2)”; in experiment [2] (setting [23]), “+ (which value is between 2 to 3)”. In experiment [2] (Transmitter / transmission group, n = 7), the “Percentage of sera samples demonstrating binding to peptide, transmitter” value is on record as 42.8%. In addition, in experiment [2] (all 20 samples), the “Percent of the maternal serum samples that bound to the peptide” value is reported as 35%. For the same substance, the “Number of Non-Transmitters which bound to peptide” value in experiment [3] was 3. For the same substance, in experiment [3], the “Percent of Non-Transmitters which bound to peptide” value was determined as 25%. For the same substance, in experiment [3], the “Number of Transmitters which bound to peptide” value is listed as 0. Besides, the “Percent of Transmitters which bound to peptide” value in experiment [3] is given as 0%.

The values are drawn from patent publication US5556744A, “Methods and compositions for diagnosing and treating certain HIV infected patients” (The Trustees of the University of Pennsylvania, priority 1994, dated 1996).
